Laboratory results as given in PubChem BioAssay (NCI).
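The compound was tested at five concentrations on cells cultured in 96-well plates, with a 48-hour exposure period. The concentration for full growth arrest is given as TGI.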

What was measured:
Assay in all cases: NCI anticancer screen, dose series, 48 h
NCI-H23 lung = test system: NCI-H23 lung
SK-MEL-28 melanoma = test system: SK-MEL-28 melanoma
TK-10 renal = test system: TK-10 renal
PC-3 prostate = test system: PC-3 prostate
HL-60(TB) leukemia = test system: HL-60(TB) leukemia
MDA-MB-231 breast = test system: MDA-MB-231 breast
ACHN renal = test system: ACHN renal
UACC-62 melanoma = test system: UACC-62 melanoma
OVCAR-8 ovarian = test system: OVCAR-8 ovarian
SNB-19 CNS = test system: SNB-19 CNS
OVCAR-5 ovarian = test system: OVCAR-5 ovarian
A498 renal = test system: A498 renal
HCC-2998 colon = test system: HCC-2998 colon
K-562 leukemia = test system: K-562 leukemia
SN12C renal = test system: SN12C renal
MALME-3M melanoma = test system: MALME-3M melanoma
SW-620 colon = test system: SW-620 colon
RXF 393 renal = test system: RXF 393 renal
HCT-116 colon = test system: HCT-116 colon
HOP-92 NSCLC = test system: HOP-92 NSCLC
MDA-N = test system: MDA-N
SK-MEL-5 melanoma = test system: SK-MEL-5 melanoma
IGROV1 ovarian = test system: IGROV1 ovarian
HS 578T breast = test system: HS 578T breast
U251 CNS = test system: U251 CNS
COLO 205 colon = test system: COLO 205 colon
NCI-H460 lung = test system: NCI-H460 lung
786-0 renal = test system: 786-0 renal
MOLT-4 leukemia = test system: MOLT-4 leukemia
HT29 colon = test system: HT29 colon
KM12 colon = test system: KM12 colon
UO-31 renal = test system: UO-31 renal
BT-549 breast = test system: BT-549 breast
A549 NSCLC = test system: A549 NSCLC
UACC-257 melanoma = test system: UACC-257 melanoma
EKVX NSCLC = test system: EKVX NSCLC
M14 melanoma = test system: M14 melanoma
HOP-62 NSCLC = test system: HOP-62 NSCLC
HCT-15 colon = test system: HCT-15 colon
SR leukemia = test system: SR leukemia
SK-MEL-2 melanoma = test system: SK-MEL-2 melanoma
MCF7 breast = test system: MCF7 breast
NCI-H226 lung = test system: NCI-H226 lung
RPMI-8226 leukemia = test system: RPMI-8226 leukemia
SNB-75 CNS = test system: SNB-75 CNS
SF-268 CNS = test system: SF-268 CNS
SF-539 CNS = test system: SF-539 CNS
OVCAR-4 ovarian = test system: OVCAR-4 ovarian
SF-295 CNS = test system: SF-295 CNS
SK-OV-3 ovarian = test system: SK-OV-3 ovarian
NCI-H522 lung = test system: NCI-H522 lung
CAKI-1 renal = test system: CAKI-1 renal
DU-145 prostate = test system: DU-145 prostate
T-47D breast = test system: T-47D breast
MDA-MB-435 = test system: MDA-MB-435
NCI/ADR-RES ovarian = test system: NCI/ADR-RES ovarian
LOX IMVI melanoma = test system: LOX IMVI melanoma
OVCAR-3 ovarian = test system: OVCAR-3 ovarian

CCOC(=O)C1(C)CCCc2sc(N)c(C#N)c21 (stereo not drawn) showed a TGI (NCI-H23 lung) greater than 100 µM, a TGI (SK-MEL-28 melanoma) greater than 100 µM and a TGI (TK-10 renal) greater than 100 µM. It also gave a TGI (PC-3 prostate) greater than 100 µM, a TGI (HL-60(TB) leukemia) greater than 100 µM and a TGI (MDA-MB-231 breast) greater than 100 µM. For the same molecule, the TGI (ACHN renal) was greater than 100 µM, the TGI (UACC-62 melanoma) was greater than 100 µM and the TGI (OVCAR-8 ovarian) was greater than 100 µM. For the same molecule, the TGI (SNB-19 CNS) was greater than 100 µM, the TGI (OVCAR-5 ovarian) was greater than 100 µM and the TGI (A498 renal) was greater than 100 µM. It also gave a TGI (HCC-2998 colon) greater than 100 µM, a TGI (K-562 leukemia) greater than 100 µM and a TGI (SN12C renal) greater than 100 µM. For the same molecule, the TGI (MALME-3M melanoma) was greater than 100 µM, the TGI (SW-620 colon) was greater than 100 µM and the TGI (RXF 393 renal) was greater than 100 µM. It also gave a TGI (HCT-116 colon) greater than 100 µM, a TGI (HOP-92 NSCLC) greater than 100 µM and a TGI (MDA-N) greater than 100 µM. For the same molecule, the TGI (SK-MEL-5 melanoma) was greater than 100 µM, the TGI (IGROV1 ovarian) was greater than 100 µM and the TGI (HS 578T breast) was greater than 100 µM. It also gave a TGI (U251 CNS) greater than 100 µM, a TGI (COLO 205 colon) greater than 100 µM and a TGI (NCI-H460 lung) greater than 100 µM. The TGI (786-0 renal) was greater than 100 µM, the TGI (MOLT-4 leukemia) was greater than 100 µM and the TGI (HT29 colon) was greater than 100 µM. The TGI (KM12 colon) was greater than 100 µM, the TGI (UO-31 renal) was greater than 100 µM and the TGI (BT-549 breast) was greater than 100 µM. For the same molecule, the TGI (A549 NSCLC) was greater than 100 µM, the TGI (UACC-257 melanoma) was greater than 100 µM and the TGI (EKVX NSCLC) was greater than 100 µM. It also gave a TGI (M14 melanoma) greater than 100 µM, a TGI (HOP-62 NSCLC) greater than 100 µM and a TGI (HCT-15 colon) greater than 100 µM. The TGI (SR leukemia) was greater than 100 µM, the TGI (SK-MEL-2 melanoma) was greater than 100 µM and the TGI (MCF7 breast) was greater than 100 µM. The TGI (NCI-H226 lung) was greater than 100 µM, the TGI (RPMI-8226 leukemia) was greater than 100 µM and the TGI (SNB-75 CNS) was greater than 100 µM.

In the case of COc1ccc(/C=C/c2cc(OC)c(OC)c(OC)c2)cc1O[Si](C)(C)C(C)(C)C, the TGI (NCI-H23 lung) is reported as greater than 100 µM, the TGI (SK-MEL-28 melanoma) is reported as greater than 100 µM and the TGI (TK-10 renal) is reported as greater than 100 µM. For the same molecule, the TGI (PC-3 prostate) was greater than 100 µM, the TGI (SF-268 CNS) was greater than 100 µM and the TGI (MDA-MB-231 breast) was greater than 100 µM. For the same molecule, the TGI (SF-539 CNS) was 5.71 µM, the TGI (OVCAR-4 ovarian) was greater than 100 µM and the TGI (ACHN renal) was 34 µM. The TGI (SF-295 CNS) was 83.8 µM, the TGI (UACC-62 melanoma) was 14.1 µM and the TGI (OVCAR-8 ovarian) was 10.8 µM. For the same molecule, the TGI (SNB-19 CNS) was greater than 100 µM, the TGI (OVCAR-5 ovarian) was greater than 100 µM and the TGI (A498 renal) was 94.1 µM. The TGI (SK-OV-3 ovarian) was greater than 100 µM, the TGI (NCI-H522 lung) was 8.08 µM and the TGI (HCC-2998 colon) was greater than 100 µM. For the same molecule, the TGI (SN12C renal) was 74.5 µM, the TGI (SW-620 colon) was 17.3 µM and the TGI (CAKI-1 renal) was greater than 100 µM. The TGI (RXF 393 renal) was 9.02 µM, the TGI (HCT-116 colon) was 14.2 µM and the TGI (HOP-92 NSCLC) was 85.4 µM. For the same molecule, the TGI (MDA-N) was 6.25 µM, the TGI (SK-MEL-5 melanoma) was 4.44 µM and the TGI (DU-145 prostate) was greater than 100 µM. It also gave a TGI (IGROV1 ovarian) greater than 100 µM, a TGI (HS 578T breast) of 8.18 µM and a TGI (T-47D breast) greater than 100 µM. The TGI (U251 CNS) was 26.6 µM, the TGI (COLO 205 colon) was 32.7 µM and the TGI (NCI-H460 lung) was 13.4 µM. The TGI (786-0 renal) was 30.7 µM, the TGI (MOLT-4 leukemia) was 22.2 µM and the TGI (HT29 colon) was greater than 100 µM. It also gave a TGI (UO-31 renal) greater than 100 µM, a TGI (BT-549 breast) of 64 µM and a TGI (A549 NSCLC) greater than 100 µM. For the same molecule, the TGI (UACC-257 melanoma) was 37.3 µM, the TGI (EKVX NSCLC) was greater than 100 µM and the TGI (M14 melanoma) was 29.3 µM. For the same molecule, the TGI (HOP-62 NSCLC) was greater than 100 µM, the TGI (HCT-15 colon) was 21.7 µM and the TGI (SK-MEL-2 melanoma) was greater than 100 µM. For the same molecule, the TGI (MCF7 breast) was 25.6 µM, the TGI (NCI-H226 lung) was 47.7 µM and the TGI (RPMI-8226 leukemia) was 3.68 µM. The TGI (SNB-75 CNS) was greater than 100 µM and the TGI (MDA-MB-435) was 5.86 µM.

Work on O=C1CSC(c2ccc([N+](=O)[O-])cc2)N1c1nc(-c2ccc3c(c2)CCCC3)cs1 (stereo not drawn) yielded a TGI (NCI-H23 lung) greater than 100 µM, a TGI (SK-MEL-28 melanoma) greater than 100 µM and a TGI (TK-10 renal) greater than 100 µM. It also gave a TGI (PC-3 prostate) greater than 100 µM, a TGI (HL-60(TB) leukemia) greater than 100 µM and a TGI (SF-268 CNS) greater than 100 µM. It also gave a TGI (MDA-MB-231 breast) greater than 100 µM, a TGI (SF-539 CNS) of 81.8 µM and a TGI (OVCAR-4 ovarian) greater than 100 µM. The TGI (ACHN renal) was greater than 100 µM, the TGI (SF-295 CNS) was greater than 100 µM and the TGI (UACC-62 melanoma) was greater than 100 µM. It also gave a TGI (OVCAR-8 ovarian) greater than 100 µM, a TGI (SNB-19 CNS) greater than 100 µM and a TGI (OVCAR-5 ovarian) greater than 100 µM. For the same molecule, the TGI (A498 renal) was greater than 100 µM, the TGI (NCI-H522 lung) was greater than 100 µM and the TGI (HCC-2998 colon) was greater than 100 µM. For the same molecule, the TGI (K-562 leukemia) was greater than 100 µM, the TGI (SN12C renal) was greater than 100 µM and the TGI (MALME-3M melanoma) was greater than 100 µM. The TGI (SW-620 colon) was greater than 100 µM, the TGI (CAKI-1 renal) was greater than 100 µM and the TGI (RXF 393 renal) was greater than 100 µM. The TGI (HCT-116 colon) was greater than 100 µM, the TGI (MDA-N) was greater than 100 µM and the TGI (SK-MEL-5 melanoma) was greater than 100 µM. The TGI (DU-145 prostate) was greater than 100 µM, the TGI (IGROV1 ovarian) was greater than 100 µM and the TGI (HS 578T breast) was greater than 100 µM. For the same molecule, the TGI (U251 CNS) was greater than 100 µM, the TGI (COLO 205 colon) was greater than 100 µM and the TGI (NCI-H460 lung) was greater than 100 µM. It also gave a TGI (786-0 renal) greater than 100 µM, a TGI (MOLT-4 leukemia) greater than 100 µM and a TGI (HT29 colon) greater than 100 µM. For the same molecule, the TGI (KM12 colon) was greater than 100 µM, the TGI (UO-31 renal) was greater than 100 µM and the TGI (BT-549 breast) was greater than 100 µM. It also gave a TGI (UACC-257 melanoma) greater than 100 µM, a TGI (EKVX NSCLC) greater than 100 µM and a TGI (HOP-62 NSCLC) greater than 100 µM. The TGI (HCT-15 colon) was greater than 100 µM, the TGI (SR leukemia) was greater than 100 µM and the TGI (SK-MEL-2 melanoma) was greater than 100 µM. It also gave a TGI (MCF7 breast) greater than 100 µM, a TGI (NCI/ADR-RES ovarian) greater than 100 µM and a TGI (NCI-H226 lung) greater than 100 µM. For the same molecule, the TGI (LOX IMVI melanoma) was greater than 100 µM, the TGI (RPMI-8226 leukemia) was greater than 100 µM and the TGI (OVCAR-3 ovarian) was greater than 100 µM. The TGI (SNB-75 CNS) was greater than 100 µM and the TGI (MDA-MB-435) was greater than 100 µM.
